Legend:
Assay type in all cases: cell-based
[1] = tested on: TRPV1; experiment: FLIPR calcium assay, TRPV1-expressing CHO cells; details: 2 mM
Source text: We then tested these compounds against TRPM8 and TRPV1.

[2] = target: T1, mouse TRPA1 (Mus musculus, UniProt Q8BLA8); experiment: FLIPR intracellular calcium assay, mouse TRPA1-expressing CHO cells
T1 construct: expressed in transfected cells; host or cells: CHO cells

[3] = target: T2, TRPA1 (Homo sapiens, UniProt O75762); experiment: FLIPR dose response, hTRPA1; design: expressed in transfected cells
Target sequence in this assay (O75762 whole entry): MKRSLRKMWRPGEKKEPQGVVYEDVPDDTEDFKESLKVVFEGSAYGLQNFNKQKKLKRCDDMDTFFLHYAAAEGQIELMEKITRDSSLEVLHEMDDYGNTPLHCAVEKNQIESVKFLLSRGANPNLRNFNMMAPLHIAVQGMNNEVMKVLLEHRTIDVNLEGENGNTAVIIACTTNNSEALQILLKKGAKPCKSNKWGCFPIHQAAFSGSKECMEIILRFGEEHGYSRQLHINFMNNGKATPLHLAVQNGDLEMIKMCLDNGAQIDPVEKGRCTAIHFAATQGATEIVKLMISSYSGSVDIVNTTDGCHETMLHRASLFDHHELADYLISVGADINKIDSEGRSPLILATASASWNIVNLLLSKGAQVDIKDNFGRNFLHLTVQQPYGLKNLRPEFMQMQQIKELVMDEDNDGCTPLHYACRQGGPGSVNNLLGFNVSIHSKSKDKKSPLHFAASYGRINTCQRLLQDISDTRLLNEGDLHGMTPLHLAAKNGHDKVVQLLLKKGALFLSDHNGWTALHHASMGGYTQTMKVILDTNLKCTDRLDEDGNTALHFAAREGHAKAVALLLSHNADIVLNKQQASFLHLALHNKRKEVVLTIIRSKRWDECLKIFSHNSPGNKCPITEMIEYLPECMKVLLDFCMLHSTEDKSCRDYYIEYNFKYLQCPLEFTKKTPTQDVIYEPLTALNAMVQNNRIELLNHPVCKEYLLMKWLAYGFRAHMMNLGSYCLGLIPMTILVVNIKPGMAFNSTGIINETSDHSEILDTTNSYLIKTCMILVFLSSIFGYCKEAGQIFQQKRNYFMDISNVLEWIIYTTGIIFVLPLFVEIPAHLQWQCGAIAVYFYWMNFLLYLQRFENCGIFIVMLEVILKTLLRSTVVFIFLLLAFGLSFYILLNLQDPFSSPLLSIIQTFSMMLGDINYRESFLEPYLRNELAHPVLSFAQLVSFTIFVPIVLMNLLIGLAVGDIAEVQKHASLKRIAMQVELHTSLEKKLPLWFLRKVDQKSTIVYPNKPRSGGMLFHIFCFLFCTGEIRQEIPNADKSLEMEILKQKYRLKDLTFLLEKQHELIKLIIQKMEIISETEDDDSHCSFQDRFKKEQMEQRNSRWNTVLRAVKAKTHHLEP

[4] = target: T3, mTRPA1 (Mus musculus, UniProt Q8BLA8); experiment: Ratiometric calcium imaging of CHO cells expressing mTRPA1
T3 construct: expressed in transfected cells; host or cells: CHO cells
T3 sequence (Q8BLA8 whole entry): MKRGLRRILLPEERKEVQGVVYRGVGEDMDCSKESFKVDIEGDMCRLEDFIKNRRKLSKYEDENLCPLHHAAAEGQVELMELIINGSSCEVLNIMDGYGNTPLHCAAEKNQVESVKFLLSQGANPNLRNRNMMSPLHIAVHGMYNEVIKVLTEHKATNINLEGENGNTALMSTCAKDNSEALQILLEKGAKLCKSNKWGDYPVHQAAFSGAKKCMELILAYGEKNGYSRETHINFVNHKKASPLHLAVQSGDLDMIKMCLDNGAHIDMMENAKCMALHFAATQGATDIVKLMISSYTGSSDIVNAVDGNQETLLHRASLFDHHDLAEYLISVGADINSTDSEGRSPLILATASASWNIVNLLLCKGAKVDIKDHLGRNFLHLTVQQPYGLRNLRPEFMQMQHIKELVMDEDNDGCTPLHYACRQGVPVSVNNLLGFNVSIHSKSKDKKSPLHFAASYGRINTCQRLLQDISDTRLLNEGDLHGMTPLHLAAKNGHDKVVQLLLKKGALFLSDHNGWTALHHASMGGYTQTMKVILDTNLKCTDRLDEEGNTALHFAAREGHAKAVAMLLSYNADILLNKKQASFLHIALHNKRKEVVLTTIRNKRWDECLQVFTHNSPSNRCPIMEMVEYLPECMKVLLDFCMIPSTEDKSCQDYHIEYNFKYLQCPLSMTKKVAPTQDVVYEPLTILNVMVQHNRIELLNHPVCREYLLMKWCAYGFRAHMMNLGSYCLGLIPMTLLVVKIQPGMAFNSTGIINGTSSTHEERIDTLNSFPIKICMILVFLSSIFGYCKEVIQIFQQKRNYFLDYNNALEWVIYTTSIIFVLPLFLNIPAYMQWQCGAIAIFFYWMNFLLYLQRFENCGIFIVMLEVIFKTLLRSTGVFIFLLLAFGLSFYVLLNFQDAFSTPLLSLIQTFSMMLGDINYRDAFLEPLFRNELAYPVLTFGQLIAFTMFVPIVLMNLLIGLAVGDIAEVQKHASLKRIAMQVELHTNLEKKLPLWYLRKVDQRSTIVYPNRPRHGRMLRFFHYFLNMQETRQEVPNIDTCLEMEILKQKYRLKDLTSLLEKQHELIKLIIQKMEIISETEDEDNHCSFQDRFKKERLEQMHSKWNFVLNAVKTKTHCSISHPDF

[5] = tested on: TRPV1; experiment: Calcium imaging of TRPV1-expressing CHO cells
[6] = tested on: adult rat DRG neurons; experiment: Calcium imaging of cultured adult rat DRG neurons
Source text: To further test this hypothesis, and to find out if the pungent compounds described above activate TRPA1 specifically, we performed calcium imaging of adult rat DRG neurons in response to cold, menthol, cinnamaldehyde, allyl isothiocyanate, and bradykinin. […] To a large extent, cinnamaldehyde and menthol activated mutually exclusive populations of cold-responsive neurons, as our model would predict. Allyl isothiocyanate appeared less specific as it activated 63% of the cold-responsive population (including a large overlap with menthol) and 12% of the cold-insensitive population. We have used 1.6 times the EC50 values of cinnamaldehyde and allyl isothiocyanate to enable us to directly compare DRG response profiles to these compounds. […] There were no significant differences in profiles of cinnamaldehyde and allyl isothiocyanate between cultures in the presence of 1 and 100 ng/ml of NGF.
In addition to the pungent sensory compounds, we have shown that BK can activate TRPA1.
To test if garlic extracts and allicin specifically activate TRPA1 in native neurons, we performed calcium imaging of adult rat DRG neurons. […] Addition of allicin or garlic extract to cultured rat DRG neurons activated a specific population of neurons.

[7] = target: T2, TRPA1; experiment: Electrophysiological recording of TRPA1-expressing oocytes; design: expressed in transfected cells; host or cells: oocytes; details: 1 μM
Target sequence in this assay (O75762 whole entry, species assumed): as the sequence (O75762 whole entry) above

T1 sequence (Q8BLA8 whole entry): as the sequence (Q8BLA8 whole entry) above

SMILES | activation of TRPV1-expressing cells, relative to TRPV1 response from saturating amounts of capsaicin [1] [%] | specificity to mTRPA1 when tested against TRPM8 and TRPV1 ([2]; 600 μM) | increase in intracellular calcium upon application ([2]; FLIPR, mTRPA1 CHO cells) | EC50 [3] [µM] | calcium response of TRPA1-expressing CHO cells [4] | calcium response of TRPV1-expressing CHO cells [5] | EC50 ([2]; FLIPR, mTRPA1, read-out: concentration for half maximal activation (EC50)) [µM] | response of capsaicin-insensitive neurons [6] | DRG neuron population activated at high concentrations ([6]; dilution 1:50 for garlic, 100 μM allicin) | DRG neuron population activated at low concentrations ([6]; dilution 1:500 for garlic, 10 μM allicin) | activation of TRPA1-expressing oocytes [7]
COC(=O)c1ccccc1O [Methyl salicylate] | 25 | specific to mTRPA1 | sharp increase in intracellular calcium |  |  |  |  |  |  |  | 
C=CCS[S+]([O-])CC=C (centres unmarked) [allicin, diallyl disulfide oxide] |  |  |  | 1.91 | immediate and strong calcium response | immediate and strong calcium response | 1.32 | never responded | activated the majority of capsaicin-sensitive DRG neurons | activated only the cinnamaldehyde-sensitive neurons | able to activate

Reference: US20070196866A1, “Modulators of ion channel trpa1” (IRM LLC, priority 2004, published 2007)
